Measured values published in ChEMBL document CHEMBL5113404, “Design, synthesis and biological evaluation of new parbendazole derivatives for the treatment of HNSCC” (Eur J Med Chem, 2022).
Calls of active or inactive are those of the source. The calls are words filed in the database; no cut-off is given here.

Key:
[1] = Antiproliferative activity against human HN-6 cells assessed as cell growth inhibition incubated for 72 hrs by CCK-8 assay; assay type: functional, cell-based; conditions: HN-6, 72 h
[2] = system: CAL-27; test: Antiproliferative activity against human CAL-27 cells assessed as cell growth inhibition incubated for 72 hrs by CCK-8 assay; assay type: functional, cell-based; conditions: CAL-27, 72 h
[3] = system: FaDu; test: Antiproliferative activity against human FaDu cells assessed as cell growth inhibition incubated for 72 hrs by CCK-8 assay; assay type: functional, cell-based; conditions: read-out: IC50
[4] = molecular target: Tubulin (Homo sapiens) (UniProt P68371+Q9H4B7+P0DPH7+P68366+Q13509+Q71U36+P04350+Q3ZCM7+P07437+P68363+Q9BQE3+Q6PEY2+Q13885+Q9BVA1+Q9BUF5); test: Inhibition of tubulin polymerization (unknown origin) at 20 micromol/L by fluorescence based analysis; assay type: protein-complex assay; conditions: dose 20.0 µmol/L
[5] = molecular target: Tubulin; test: Inhibition of tubulin polymerization (unknown origin) by fluorescence based analysis; assay type: protein-complex assay, Homo sapiens
[6] = system: HN-6; test: Induction of cell morphological changes in human HN-6 cells assessed as decrease in tubulin network around nucleus at 100 nmol/L incubated for 24 hrs by DAPI staining based confocal microscopy analysis; assay type: functional
[7] = Antimigratory activity in human HN-6 cells assessed as inhibition of cell migration at 0.1 micromol/L measured after 24 hrs by scratch wound assay based fluorescence microscope analysis; assay type: functional; conditions: HN-6, 24 h, dose 0.1 µmol/L
[8] = system: HN-6; test: Inhibition of cell invasion in human HN-6 cells at 200 to 500 nmol/L incubated for 24 hrs by crystal violet staining based transwell assay; assay type: functional; conditions: dose 200-500 nmol/L
[9] = Induction of apoptosis in human HN-6 cells assessed as viable cells at 0.1 micromol/L incubated for 24 hrs by Annexin-V/FITC-PI staining based flow cytometry analysis (reference value: 97.26%); assay type: functional; conditions: HN-6, 24 h, dose 0.1 µmol/L, read-out: Activity
[10] = Induction of apoptosis in human HN-6 cells assessed as early apoptotic cells at 0.1 micromol/L incubated for 24 hrs by Annexin-V/FITC-PI staining based flow cytometry analysis (reference value: 2.04%); assay type: functional; conditions: dose 0.1 µmol/L, at 0.1 µM
[11] = Induction of apoptosis in human HN-6 cells assessed as late apoptotic cells at 0.1 micromol/L incubated for 24 hrs by Annexin-V/FITC-PI staining based flow cytometry analysis (reference value: 8.81%); assay type: functional; conditions: dose 0.1 µmol/L, at 0.1 µM
[12] = Induction of apoptosis in human HN-6 cells assessed as necrotic cells at 0.1 micromol/L incubated for 24 hrs by Annexin-V/FITC-PI staining based flow cytometry analysis (reference value: 2.08%); assay type: functional; conditions: dose 0.1 µmol/L, at 0.1 µM
[13] = Induction of apoptosis in human HN-6 cells assessed as viable cells at 1 micromol/L incubated for 24 hrs by Annexin-V/FITC-PI staining based flow cytometry analysis (reference value: 97.26%); assay type: functional; conditions: HN-6, 24 h, dose 1 µmol/L, read-out: Activity
[14] = Induction of apoptosis in human HN-6 cells assessed as early apoptotic cells at 1 micromol/L incubated for 24 hrs by Annexin-V/FITC-PI staining based flow cytometry analysis (reference value: 2.04%); assay type: functional; conditions: dose 1 µmol/L, at 1 µM
[15] = Induction of apoptosis in human HN-6 cells assessed as late apoptotic cells at 1 micromol/L incubated for 24 hrs by Annexin-V/FITC-PI staining based flow cytometry analysis (reference value: 8.81%); assay type: functional; conditions: dose 1 µmol/L, at 1 µM
[16] = Induction of apoptosis in human HN-6 cells assessed as necrotic cells at 1 micromol/L incubated for 24 hrs by Annexin-V/FITC-PI staining based flow cytometry analysis (reference value: 2.08%); assay type: functional; conditions: dose 1 µmol/L, at 1 µM
[17] = Induction of cell cycle arrest in human HN-6 cells assessed as accumulation of cells at G1 phase at 0.1 micromol/L incubated for 24 hrs by PI staining based flow cytometry analysi (reference value: 45.33%); assay type: functional; conditions: dose 0.1 µmol/L, at 0.1 µM
[18] = Induction of cell cycle arrest in human HN-6 cells assessed as accumulation of cells at S phase at 0.1 micromol/L incubated for 24 hrs by PI staining based flow cytometry analysi (reference value: 32.12%); assay type: functional; conditions: dose 0.1 µmol/L, at 0.1 µM
[19] = Induction of cell cycle arrest in human HN-6 cells assessed as accumulation of cells at S phase at 0.1 micromol/L incubated for 24 hrs by PI staining based flow cytometry analysi (reference value: 31.19%); assay type: functional; conditions: dose 0.1 µmol/L, at 0.1 µM
[20] = system: HN-6; test: Antitumor activity against human HN-6 cells xenografted in mouse assessed as reduction on tumor growth at 80 mg/kg,IG administered daily for 2 weeks; assay type: functional, organism-based
[21] = Acute toxicity in mouse xenografted with human HN-6 cells assessed as body weight loss at 80 mg/kg,IG administered daily for 2 weeks; assay type: organism-based; conditions: in vivo, po, 336 h
[22] = system: Mus musculus; test: Antitumor activity against human HN-6 cells xenografted in mouse serum assessed as reduction on TPS level at 80 mg/kg,IG administered daily for 2 weeks by ELISA; assay type: functional, organism-based
[23] = system: Mus musculus; test: Antitumor activity against human HN-6 cells xenografted in mouse serum assessed as reduction on CYFRA21-1 level at 80 mg/kg,IG administered daily for 2 weeks by ELISA; assay type: functional, organism-based
[24] = system: Mus musculus; test: Antitumor activity against human HN-6 cells xenografted in mouse serum assessed as reduction on SCCAg level at 80 mg/kg,IG administered daily for 2 weeks by ELISA; assay type: functional, organism-based
[25] = Cytotoxicity against human HFF-1 clls assessed as reduction in cell viability incubated for 72 hrs by CCK-8 assay; assay type: toxicity, cell-based; conditions: HFF-1 cells
[26] = Acute toxicity in Kunming mouse assessed as adverse effect at 158 mg/kg,IG after 15 days of administration; assay type: organism-based; conditions: in vivo, po, 360 h, time 15 day
[27] = Acute toxicity in Kunming mouse assessed as adverse effect at 251 mg/kg,IG after 15 days of administration; assay type: organism-based; conditions: in vivo, po, 360 h, time 15 day
[28] = Acute toxicity in Kunming mouse assessed as change in body weight at 158 mg/kg,IG after 15 days of administration; assay type: organism-based; conditions: in vivo, po, 360 h, time 15 day
[29] = Acute toxicity in Kunming mouse assessed as change in body weight at 251 mg/kg,IG after 15 days of administration; assay type: organism-based; conditions: in vivo, po, 360 h, time 15 day
[30] = Acute toxicity in Kunming mouse assessed as death at 398 mg/kg,IG after 15 days of administration; assay type: organism-based; conditions: in vivo, po, 360 h, time 15 day
[31] = Acute toxicity in Kunming mouse assessed as lethargy at 631 mg/kg,IG after 6 hrs of administration; assay type: organism-based; conditions: in vivo, po
[32] = Acute toxicity in Kunming mouse assessed as lethargy at 1 g/Kg,IG after 2 hrs of administration; conditions: in vivo, po, 1000 mg/kg
[33] = Acute toxicity in Kunming mouse assessed as hypothermia at 631 mg/kg,IG after 6 hrs of administration; assay type: organism-based; conditions: in vivo, po
[34] = Acute toxicity in Kunming mouse assessed as hypothermia at 1 g/Kg,IG after 2 hrs of administration; conditions: in vivo, po, 1000 mg/kg
[35] = Acute toxicity in Kunming mouse assessed as weakness at 631 mg/kg,IG after 6 hrs of administration; assay type: organism-based; conditions: in vivo, po
[36] = Acute toxicity in Kunming mouse assessed as weakness at 1 g/Kg,IG after 2 hrs of administration; conditions: in vivo, po, 1000 mg/kg
[37] = Acute toxicity in IG dosed Kunming mouse assessed as lethal dose after 15 days of administration; assay type: organism-based; conditions: in vivo, po, time 15 day
[38] = Half life in rat at 100 mg/kg,IG measured upto 24 hrs by HPLC analysis; assay type: ADME, organism-based; conditions: in vivo, po
[39] = Tmax in rat at 100 mg/kg,IG measured upto 24 hrs by HPLC analysis; assay type: ADME, organism-based; conditions: in vivo, po
[40] = Cmax in rat at 100 mg/kg,IG measured upto 24 hrs by HPLC analysis; assay type: ADME, organism-based; parameters: dose 100 mg/kg, time < 24 hrs, route ig; conditions: in vivo, po
[41] = AUC (0 to t) in rat at 100 mg/kg,IG measured upto 24 hrs by HPLC analysis; assay type: ADME, organism-based; parameters: dose 100 mg/kg, time < 24 hrs, route ig; conditions: in vivo, po

With CCCCc1ccc2nc(NC(=O)OC(C)C)[nH]c2c1 the IC50 [1] was 34.9 nM, the IC50 [2] was 93.1 nM and the IC50 [3] was 126 nM. The inhibition [4] was 98.9%, the IC50 [5] was 4040 nM and the Activity [6] was “Active”. For the same compound, the inhibition at 0.1 µM [7] was 6.27%, the inhibition [8] was “Active” and the viability at 0.1 µM [9] was 62.9%. The Activity [10] was 11.53%, the Activity [11] was 20.59% and the Activity [12] was 5.01%. The viability at 1 µM [13] was 52.6%, the Activity [14] was 16.44% and the Activity [15] was 24.75%. For the same compound, the Activity [16] was 6.23%, the Activity [17] was 14.26% and the Activity [18] was 16.16%. For the same compound, the Activity [19] was 68.08%, the Activity [20] was “Active” and the Activity [21] was “Non-Toxic”. For the same compound, the Activity [22] was “Active”, the Activity [23] was “Active” and the Activity [24] was “Active”. For the same compound, the IC50 at 72 h [25] was greater than 20000 nM, the Activity [26] was “Non-Toxic” and the Activity [27] was “Non-Toxic”. For the same compound, the Activity [28] was “Non-Toxic”, the Activity [29] was “Non-Toxic” and the Activity [30] was “Toxic”. For the same compound, the Activity [31] was “Toxic”, the Activity [32] was “Toxic” and the Activity [33] was “Toxic”. The Activity [34] was “Toxic”, the Activity [35] was “Toxic” and the Activity [36] was “Toxic”. For the same compound, the LD50 at 360 h [37] was 341 mg/kg, the half-life [38] was 1.95 h and the Tmax [39] was 2 h. It also gave a Cmax [40] of 169 ng/mL and an AUC(0-t) at 24 h [41] of 542 ng·h/mL.
